In US9131691B2, “Use of amide compounds for preventing marine biofouling” (The Hong Kong University of Science and Technology, priority 2011, dated 2015):
Values after ≈ are worked out from the molar mass of the structure shown. Like-named read-outs stand apart in the source and are kept apart here.

Legend:
Type in all cases: in vivo
[1] = in vivo; settings: Balanus amphitrite (barnacle) cyprid larvae, in vivo, B. amphitrite cyprids, 48 h, concentration where 50% of larvae dead
Experimental: (§1) They were kept in sea water at room temperature in lab under light illumination to induce the release of nauplii larvae. These newly released nauplii were reared to the cyprid stage on a diet of Chaetoceros gracilis Schutt at 28° C. for about 3 days until they developed into cyprids, which were ready to settle. The cyprids were collected using a 120 μm mesh sieve. Each sample of the exacts was dissolved in a small amount of DMSO and then transferred into filtered seawater to make up the test solution with a known concentration. About fifteen (15±3) cyprids per well were incubated in the dark for 48 h in a 24-well plate filled with 1 ml testing solutions per well. The numbers of the settled and swimming larvae were counted under a dissecting microscope. Three replicates were run for each sample. […] The experiment was performed in quadruplicate.
as §1, with “Each compound” for “Each”, “sample” for “sample of the exacts”

[2] = system: B. amphitrite cyprids; assay: whole plant or invertebrate; settings: for EC50: Amphibalanus amphitrite, 48 h, read-out: EC50 (larval settlement); for LC50/EC50: B. amphitrite, ratio >10 regarded as non-toxic
Experimental: as §1
as §1, with “Each compound” for “Each”, “sample” for “sample of the exacts”

[3] = inhibition of larvae settlement of H. elegans; settings: Hydroides elegans (polychaete tubeworm) larvae, in vivo, H. elegans larvae, 48 h
Experimental: (§2) The four amide compounds were tested for their abilities to inhibit larvae settlement of the H. elegans, using an experimental model of inhibition of larvae settlement H. elegans (Zhang Y., Xiao K., Qian P. Y., et al. 2D gel-based multiplexed proteomic analysis during larval development and metamorphosis of the biofouling polychaete tubeworm Hydroides elegans. Journal of proteome research. 2010, 9(9), 4851-4860). Adults of H. elegans were collected from Yung Shue O, Hong Kong (22° 25′N, 114° 16′E). The H. elegans larvae were reared according to Qian and Pechenik (Bryan P. J., Qian P. Y., Kreider J. L.; Chia F. S. Induction of larval settlement and metamorphosis by pharmacological and conspecific associated compounds in the serpulid polychaete Hydroides elegans. Marine ecology progress series. 1997, 146: 81-90; Qiu, J. W.; Qian, P. Y. Combined effects of salinity, temperature and food on early development of the polychaete Hydroides elegans. Marine ecology progress series. 1997, 152: 79-88). Briefly, they were reared for 4 days until they reach the settlement-competent stage on a diet of chrysophyte Isochrysis galbana under an aerated condition and a 15 h light/9 h dark photoperied at 25° C. Because the attachment of H. elegans larvae requires to be induced by marine biofilm (Carpizo-Ituarte and Hadfield 1998), 24-well plates were suspended in laboratory tanks supplied with running seawater for 6 days until each well of every plate had accumulated sufficient biofilm. About fifteen (15±3) competent larvae were added to each biofilmed well of a plate containing 1.0 mL test solution containing samples at known concentrations. The 24-well plates were incubated at 28° C. for 48 h under a 15 h light/9 h dark photoperied. The percentage of larvae settlement and larvae mortality was determined by counting the settled, live individuals under a dissecting microscope. Three replicates were run for each sample. The EC50 was calculated as the concentration where 50% of the larval population was inhibited to settle as compared to the control, while LC50 was calculated as the concentration where 50% of the larval population was dead. The experiment was performed in quadruplicate. The experiment results of the inhibitory effect of the four Compounds 1-4 on larvae settlement of H. elegans were shown in FIGS. 3, 6, 9, and 12, respectively.

[4] = system: H. elegans larvae; assay: inhibition of larvae settlement of H. elegans; settings: for LC50/EC50: H. elegans, ratio >10 regarded as non-toxic; for EC50: Hydroides elegans, read-out: EC50 (larval settlement)
Experimental: as §2

[5] = inhibition of larvae settlement of B. neritina; settings: Bugula neritina (bryozoan) larvae, in vivo, B. neritina larvae, 24 h
Experimental: (§3) Adult B. neritina colonies were placed in a 12 L tank filled with 8 L filtered seawater under a bright artificial light for 1 h to induce the release of their photo-tactic larvae that were able to shortly attach and metamorphose. The actively swimming larvae were collected and added to the test solutions contain different concentrations of samples in 24-well plates at about fifteen (15±3) larvae per well. They were then incubated in the dark at room temperature for 24 h before counting the number of attached and unattached larvae under a dissecting microscope. […] The experiment was performed in quadruplicate.

[6] = system: B. neritina larvae; assay: inhibition of larvae settlement of B. neritina; settings: for LC50/EC50: B. neritina, ratio >10 regarded as non-toxic; for EC50: Bugula neritina, read-out: EC50 (larval settlement)
Experimental: as §3

[7] = other: immersion in test solution
[8] = B. amphitrite cyprids, concentration where 50% of larvae inhibited to settle vs control
[9] = 48 h, H. elegans larvae, biofilmed wells, 48 h

**Q.** Which LC50 at 48 h [1, 7] does the source give for `O=C(CCCCCC/C=C/c1ccc2c(c1)OCO2)N1CCCCC1` [Compound 1, 1-[1-oxo-9-(3′,4′-methylenedioxyphenyl)-8E-nonenyl]-piperine] here?
**A.** > 100 µg/mL

**Q.** And the EC50 [2, 8]?
**A.** 1.1 ± 0.3 µg/mL (≈ 3.2 µM)

**Q.** What about the LC50/EC50 [2] of the same compound?
**A.** >86.9

**Q.** And the LC50 at 48 h [3, 7]?
**A.** > 50 µg/mL

**Q.** And the LC50/EC50 [4]?
**A.** >49.5

**Q.** What about the EC50 [4, 9] of the same compound?
**A.** 1 ± 0.4 µg/mL (≈ 2.91 µM)

**Q.** And the LC50 at 24 h [5, 7]?
**A.** > 10 µg/mL

**Q.** And the “EC50 (larval settlement)” value ([6]; B. neritina larvae, 24 h)?
**A.** 0.7 ± 0.2 µg/mL (≈ 2.04 µM)

**Q.** And the LC50/EC50 [6]?
**A.** >14.7

**Q.** With `O=C(/C=C/C=C/c1ccc2c(c1)OCO2)N1CCCCC1` [Compound 2, 1-[1-oxo-5-(3′,4′-methylenedioxyphenyl)-2,4-pentadienoyl]-piperidine] as the compound, how does the LC50 at 48 h [1] read?
**A.** > 100 µg/mL

**Q.** What about the EC50 [2, 8] of the same compound?
**A.** 1.4 ± 0.6 µg/mL (≈ 4.91 µM)

**Q.** What about the LC50/EC50 [2] of the same compound?
**A.** >71.4

**Q.** What about the LC50 at 48 h [3] of the same compound?
**A.** > 50 µg/mL

**Q.** What about the LC50/EC50 [4] of the same compound?
**A.** >38.5

**Q.** What about the EC50 [4, 9] of the same compound?
**A.** 1.3 ± 0.8 µg/mL (≈ 4.56 µM)

**Q.** And the LC50 at 24 h [5]?
**A.** > 50 µg/mL

**Q.** And the LC50/EC50 [6]?
**A.** >30.3

**Q.** And the EC50 ([6]; 24 h, B. neritina larvae, 24 h)?
**A.** 1.6 ± 0.7 µg/mL (≈ 5.61 µM)

**Q.** Which LC50 at 48 h [1, 7] does the source give for `O=C(/C=C/C=C/CCc1ccc2c(c1)OCO2)N1CCCCC1` [Compound 3, 1-[1-oxo-7-(3′,4′-methylenedioxyphenyl)-2E,4E-heptadienyl]-piperine] here?
**A.** > 100 µg/mL

**Q.** What about the EC50 [2, 8] of the same compound?
**A.** 4.2 ± 1.3 µg/mL (≈ 13.4 µM)

**Q.** What about the LC50/EC50 [2] of the same compound?
**A.** >24.0

**Q.** What about the LC50 at 48 h [3, 7] of the same compound?
**A.** > 100 µg/mL

**Q.** What about the LC50/EC50 [4] of the same compound?
**A.** >13.7

**Q.** And the EC50 [4, 9]?
**A.** 7.3 ± 1.6 µg/mL (≈ 23.3 µM)

**Q.** What about the LC50 at 24 h [5, 7] of the same compound?
**A.** > 100 µg/mL

**Q.** What about the LC50/EC50 [6] of the same compound?
**A.** >11.7

**Q.** What about the EC50 ([6]; 24 h, B. neritina larvae, 24 h) of the same compound?
**A.** 8.5 ± 2.1 µg/mL (≈ 27.1 µM)

**Q.** What does the source list for `CC(C)CNC(=O)/C=C/C=C/CCCCCC/C=C/c1ccc2c(c1)OCO2` [Compound 4, (2E,4E,12E)-N-isobutyl-13-(3′,4′-methylenedioxyphenyl)-tridecatrienamide]?
**A.** LC50 at 48 h [1]: > 200 µg/mL; EC50 [2]: 16.6 ± 2.9 µg/mL (≈ 43.3 µM); LC50/EC50 [2]: >12.1; LC50 at 48 h [3]: > 100 µg/mL; EC50 (larval settlement) ([4]; H. elegans larvae, biofilmed wells, 48 h): >20.0 µg/mL; EC50 ([4]; 48 h): > 20 µg/mL; LC50 at 24 h [5]: > 100 µg/mL; LC50/EC50 [6]: >17.6; EC50 ([6]; 24 h): 5.7 ± 1.5 µg/mL (≈ 14.9 µM)
